The results in this text go back to patent EP4790066A1, “GLP-1R/GIPR/GCGR TRIPLE AGONIST ANALOGUE AND USE THEREOF” (Shenzhen Bay Laboratory, priority 2023, dated 2025).

The target in series [1] is T1, GLP-1R (Homo sapiens, UniProt P43220).
T1 construct: expressed in transfected cells
The series can be described thus: CreLuc method (CRE-luciferase reporter), HEK293/pGM-CREB-L-Luc/GLP-1R pool. In kind it is cell-based. The conditions noted are these: 6 h incubation, read-out: EC50 (pM) for each receptor GLP-1R. Put shortly: (§1)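 Stable HEK293 pools co-expressing each receptor with a CRE-luciferase reporter were plated at 20,000 cells/well in freestyle medium and treated with compound dilution series for 6 h at 37 °C. Luminescence was read with ONE-GLO to derive EC50.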
A general note: A reporter such as luciferase makes a cellular process visible.

Series [2] concerns the target T2, GIPR (Homo sapiens, UniProt P48546).
T2 construct: expressed in transfected cells
T2 sequence (P48546 22-466): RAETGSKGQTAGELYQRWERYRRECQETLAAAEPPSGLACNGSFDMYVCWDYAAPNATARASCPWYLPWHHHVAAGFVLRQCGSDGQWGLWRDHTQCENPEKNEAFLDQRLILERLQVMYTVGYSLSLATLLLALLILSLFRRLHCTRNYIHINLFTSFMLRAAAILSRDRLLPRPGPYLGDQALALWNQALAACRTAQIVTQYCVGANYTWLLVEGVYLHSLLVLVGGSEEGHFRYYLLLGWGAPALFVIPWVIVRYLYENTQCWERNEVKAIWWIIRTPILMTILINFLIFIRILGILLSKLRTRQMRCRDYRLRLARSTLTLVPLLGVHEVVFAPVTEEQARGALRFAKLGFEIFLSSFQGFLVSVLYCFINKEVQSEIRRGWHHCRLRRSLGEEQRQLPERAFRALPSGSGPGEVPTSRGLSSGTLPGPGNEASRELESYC
Put plainly: CreLuc method (CRE-luciferase reporter), HEK293/pGM-CREB-L-Luc/GIPR pool. It is filed as cell-based. The conditions noted are these: 6 h incubation, read-out: EC50 (pM) for each receptor GIPR. Put shortly:
as §1

Series [3] deals with T3, GCGR (Homo sapiens, UniProt P47871).
T3 construct: expressed in transfected cells
The series can be described thus: CreLuc method (CRE-luciferase reporter), 293HEK/pGM-CREB-L-Luc/GCGR pool. The note with it: 6 h incubation, read-out: EC50 (pM) for each receptor GCGR. In kind it is cell-based. Put shortly:
as §1

Series [4] has as its target T1, GLP-1R. Put plainly: cAMP method (HTRF cAMP detection kit), HEK293/pGM-CREB-L-Luc/GLP-1 pool. In kind it is cell-based. The conditions noted are these: read-out: EC50 (pM) for each receptor GLP-1R. How it is done:
(§2) 2. Insulinotropic analogues can bind to target receptors on the cell membrane, activate the receptors, and induce release. The activity of the test substance can be determined using the HTRF method with a cAMP detection kit. Therefore, the cAMP method can be used to detect the target peptide derivatives (or polypeptide derivatives, i.e., TG1-TG86) prepared in Example 1 and Example 2. […] The test cell line was selected, treated with cAMP-specific trypsin for digestion. 3 mL of serum-free DMEM culture medium was added, and the cells were pipetted, resuspended, and counted. 5 µL of IBMX (prepared with serum-free DMEM medium, 0.5 mM) and test cells (5 µL/7500 cells/well) were added in a 384-well plate sequentially. The plate was incubated at 37°C under 5% CO2 for 30 min, followed by the addition of cAMP-d2 (5 µL, 1x) and Anti-cAMP-Cryptate (5 µL, 1x). The mixture was kept at room temperature for 1 h, after which the HTRF value was measured using a chemiluminescent microplate reader, and the determination result was recorded. […] Table 4: EC50 values for target peptide derivatives
(TR-FRET usually uses a lanthanide donor and a delayed reading to cut background.)

The target in series [5] is T3, GCGR. The series can be described thus: cAMP method (HTRF cAMP detection kit), HEK293/pGM-CREB-L-Luc/GCG pool. It is filed as cell-based. The conditions noted are these: read-out: EC50 (pM) for each receptor GCGR. How it is done:
as §2

Series [6] addresses T2, GIPR. The series can be described thus: cAMP method (HTRF cAMP detection kit), HEK293/pGM-CREB-L-Luc/GIP pool. In kind it is cell-based. The conditions noted are these: read-out: EC50 (pM) for each receptor GIPR. On the procedure: as §2
A further series in a line: in vivo. The note with it: rat. Further details: species or system male SD rats. How it is done: The pharmacokinetic behavior of target peptide derivatives (or polypeptide derivatives) prepared in Example 1 and Example 2, i.e., TG1-TG94 in rodents was tested. The specific steps are as follows:
The target peptide derivatives (TG1-TG94) to be tested were administered to male SD rats via subcutaneous injection (SC, 3 mg/kg; drug vehicle: PBS, concentration: 1.5 mg/mL; administration volume: 2 mL) and intravenous injection (IV, 1 mg/kg; drug vehicle: PBS, concentration: 0.5 mg/mL; administration volume: 2 mL) as a single dose, respectively. Whole blood samples were collected from the jugular vein or other appropriate vein at the following time points after administration: for SC, 15 min, 30 min, 1 h, 2 h, 4 h, 6 h, 8 h, 24 h, 48 h, 72 h, 96 h, 120 h, and 168 h; for IV, 5 min, 15 min, 30 min, 1 h, 2 h, 4 h, 8 h, 24 h, 48 h, 72 h, 96 h, 120 h, and 168 h. 0.2 mL of blood was collected and transferred into a labeled EDTA-K2 anticoagulant tube. The tube was gently inverted to ensure thorough mixing of the anticoagulant (EDTA-K2) with the blood and immediately placed on wet ice. Plasma separation was performed as soon as possible by centrifugation under the following conditions: 4°C, 6800xg, for 6 min. The plasma samples were stored in a refrigerator at no higher than -20°C and used for analysis when needed.
Under the condition of yellow light in an ice-water bath, except for blank samples, 300 µL of precipitant containing an internal standard was added to a 96-well plate containing 20 µL of standard curve sample, quality control sample, or unknown sample; 300 µL of acetonitrile was added to the blank sample. The mixture was vortexed, mixed well, and then centrifuged. 150 µL of the supernatant after centrifugation was transferred to a new 96-well plate, and 150 µL of ultrapure water was added and mixed well. The above samples were subjected to quantitative analysis using LC-MS analysis with XB-C18 (2.1 * 100 mm, 3 µm) chromatography for gradient elution. The mobile phases used were: mobile phase A = 0.1% formic acid-water; mobile phase B = acetonitrile. Phoenix WinNonlin software was used to calculate the pharmacokinetic parameters. […] Table 5A: Pharmacokinetic parameters of target peptide derivatives

T3 sequence (P47871 26-477, species assumed): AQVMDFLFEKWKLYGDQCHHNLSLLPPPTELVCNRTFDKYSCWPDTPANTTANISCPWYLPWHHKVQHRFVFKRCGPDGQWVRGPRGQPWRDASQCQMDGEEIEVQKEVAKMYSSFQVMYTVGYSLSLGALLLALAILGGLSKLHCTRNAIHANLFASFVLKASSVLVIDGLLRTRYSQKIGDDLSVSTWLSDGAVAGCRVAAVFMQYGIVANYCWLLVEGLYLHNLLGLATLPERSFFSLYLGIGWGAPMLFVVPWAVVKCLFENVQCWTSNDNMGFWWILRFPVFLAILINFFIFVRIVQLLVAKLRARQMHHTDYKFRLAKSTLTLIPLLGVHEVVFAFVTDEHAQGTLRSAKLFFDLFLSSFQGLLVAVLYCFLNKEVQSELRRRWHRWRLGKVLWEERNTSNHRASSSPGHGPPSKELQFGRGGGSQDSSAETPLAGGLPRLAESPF
T1 sequence (P43220 24-463, species assumed): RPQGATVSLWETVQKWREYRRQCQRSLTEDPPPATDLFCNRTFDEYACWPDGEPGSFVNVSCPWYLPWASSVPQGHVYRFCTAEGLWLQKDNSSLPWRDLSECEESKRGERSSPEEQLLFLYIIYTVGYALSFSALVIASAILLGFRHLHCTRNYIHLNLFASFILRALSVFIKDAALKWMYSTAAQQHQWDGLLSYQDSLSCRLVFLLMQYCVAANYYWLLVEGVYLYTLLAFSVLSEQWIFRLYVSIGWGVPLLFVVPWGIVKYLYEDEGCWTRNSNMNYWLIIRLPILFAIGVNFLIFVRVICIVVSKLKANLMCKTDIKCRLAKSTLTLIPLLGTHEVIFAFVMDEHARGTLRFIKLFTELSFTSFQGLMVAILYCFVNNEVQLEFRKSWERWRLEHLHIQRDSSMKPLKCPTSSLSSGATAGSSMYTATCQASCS

Broadly, the EC50 is the concentration at which the effect is half-maximal. With `CC[C@H](C)[C@@H]1NC(=O)[C@H](Cc2ccccc2)NC(=O)[C@@H](NC(=O)C(C)(C)NC(=O)[C@H](CCC(N)=O)NC(=O)[C@H](C)NC(=O)[C@H](CCCCNC(C)=O)NC(=O)[C@H](CCCCN)NC(=O)[C@H](CC(=O)O)NC(=O)[C@H](CCC(C)C)NC(=O)[C@](C)(CC(C)C)NC(=O)[C@@H](NC(=O)[C@H](CO)NC(=O)[C@H](Cc2ccc(O)cc2)NC(=O)[C@H](CC(=O)O)NC(=O)[C@H](CO)NC(=O)[C@@H](NC(=O)[C@H](Cc2ccccc2)NC(=O)[C@@H](NC(=O)CNC(=O)[C@H](CCC(N)=O)NC(=O)C(C)(C)NC(=O)[C@@H](N)Cc2ccc(O)cc2)[C@@H](C)O)[C@@H](C)O)[C@@H](C)CC)CSCC(=O)NCCN(C(=O)CCC(=O)NCCOCCOCC(=O)NCCOCCOCC(=O)NCCCC[C@H](NC(=O)CCCCCCCCCCCCCCCCCCC(=O)O)C(=O)O)CCNC(=O)CSC[C@@H](C(=O)NCC(=O)NCC(=O)N2CCC[C@H]2C(=O)N[C@@H](CO)C(=O)N[C@@H](CO)C(=O)NCC(=O)N[C@@H](C)C(=O)N2CCC[C@H]2C(=O)N2CCC[C@H]2C(=O)N2CCC[C@H]2C(=O)N[C@@H](CO)C(N)=O)NC(=O)[C@H](CC(C)C)NC(=O)[C@H](CC(C)C)NC(=O)[C@H](Cc2ccc(O)cc2)NC(=O)[C@H](CCC(=O)O)NC1=O` [TG25], the EC50 was found to be 54 pM on GLP-1R [1]; 24.4 pM at GIPR [2]; 311 pM on GCGR [3]; 2.2 pM at GLP-1R [4]; 65.1 pM at GCGR [5].

In the case of `CC[C@H](C)[C@@H]1NC(=O)[C@H](Cc2ccccc2)NC(=O)[C@@H](NC(=O)C(C)(C)NC(=O)[C@H](CCC(N)=O)NC(=O)[C@H](C)NC(=O)[C@H](CCCCNC(C)=O)NC(=O)[C@](C)(CCCCN)NC(=O)[C@H](CC(=O)O)NC(=O)[C@H](CC(C)C)NC(=O)[C@](C)(CC(C)C)NC(=O)[C@@H](NC(=O)[C@](C)(CO)NC(=O)[C@H](Cc2ccc(O)cc2)NC(=O)[C@H](CC(=O)O)NC(=O)[C@H](CO)NC(=O)[C@@H](NC(=O)[C@H](Cc2ccccc2F)NC(=O)[C@@H](NC(=O)CNC(=O)[C@H](CCC(N)=O)NC(=O)C(C)(C)NC(=O)[C@@H](N)Cc2ccc(O)cc2)[C@@H](C)O)[C@@H](C)O)[C@@H](C)CC)CSCC(=O)NCCN(C(=O)CCC(=O)NCCOCCOCC(=O)NCCOCCOCC(=O)NCCCC[C@H](NC(=O)CCCCCCCCCCCCCCCCCCC(=O)O)C(=O)O)CCNC(=O)CSC[C@@H](C(=O)NCC(=O)NCC(=O)N2CCC[C@H]2C(=O)N[C@@H](CO)C(=O)N[C@@H](CO)C(=O)NCC(=O)N[C@@H](C)C(=O)N2CCC[C@H]2C(=O)N2CCC[C@H]2C(=O)N2CCC[C@H]2C(=O)N[C@@H](CO)C(N)=O)NC(=O)[C@H](CC(C)C)NC(=O)[C@H](CC(C)C)NC(=O)[C@H](Cc2ccc(O)cc2)NC(=O)[C@H](CCC(=O)O)NC1=O` [TG61], the concentration for a half-maximal effect (EC50) is 264 pM at GLP-1R [1]; 12.6 pM at GIPR [2]; 268 pM on GCGR [3]; 5.9 pM at GIPR [6]; 12.4 pM on GCGR [5].

Broadly, the AUC(0-inf) is the area under the concentration-time curve extrapolated to infinity. As usually defined, the AUC(0-t) is exposure summed from dosing to a finite time, without extrapolation to infinity. A word on the MRT: it is a mean duration of stay, worked out from the concentration-time curve. What is called Vd is a proportionality between amount in the body and measured concentration, not a real space. Higher therefore signals extensive tissue distribution. For orientation: clearance means the volume of plasma or blood freed of the substance per unit of time. A high value points to a high capacity for elimination. A word on the half-life: it is the time in which the quantity being followed falls by half. Low readings indicate rapid decline, high ones slow decline. As a reminder, the bioavailability is the share of a dose that reaches the circulation, judged against a reference dose that is usually intravenous. Low values mean little systemic uptake, high ones much systemic uptake. The CL/F is the apparent clearance, not corrected for the fraction that reaches the circulation. One may read the Cmax as the maximum level reached in the sampled fluid or tissue. For orientation: Tmax means the time at which the peak concentration occurs. Turning to `CC[C@H](C)[C@@H]1NC(=O)[C@H](Cc2ccccc2)NC(=O)[C@@H](NC(=O)C(C)(C)NC(=O)[C@H](CCC(N)=O)NC(=O)[C@H](C)NC(=O)[C@H](CCCCNC(C)=O)NC(=O)[C@H](CCCCN)NC(=O)[C@H](CC(=O)O)NC(=O)[C@H](CC(C)C)NC(=O)[C@](C)(CC(C)C)NC(=O)[C@@H](NC(=O)[C@H](CO)NC(=O)[C@H](Cc2ccc(O)cc2)NC(=O)[C@H](CC(=O)O)NC(=O)[C@H](CO)NC(=O)[C@@H](NC(=O)[C@H](Cc2ccccc2F)NC(=O)[C@@H](NC(=O)CNC(=O)[C@H](CCC(N)=O)NC(=O)C(C)(C)NC(=O)[C@@H](N)Cc2ccc(O)cc2)[C@@H](C)O)[C@@H](C)O)[C@@H](C)CC)CSCC(=O)NCCN(C(=O)CCC(=O)NCCOCCOCC(=O)NCCOCCOCC(=O)NCCCC[C@H](NC(=O)CCCCCCCCCCCCCCCCCCC(=O)O)C(=O)O)CCNC(=O)CSC[C@@H](C(=O)NCC(=O)NCC(=O)N2CCC[C@H]2C(=O)N[C@@H](CO)C(=O)N[C@@H](CO)C(=O)NCC(=O)N[C@@H](C)C(=O)N2CCC[C@H]2C(=O)N2CCC[C@H]2C(=O)N2CCC[C@H]2C(=O)N[C@@H](CO)C(N)=O)NC(=O)[C@H](CC(C)C)NC(=O)[C@H](CC(C)C)NC(=O)[C@H](Cc2ccc(O)cc2)NC(=O)[C@H](CCC(=O)O)NC1=O` [TG40], at GLP-1R [1], the half-maximal effective concentration (EC50) stood at 33.9 pM. The EC50 on GIPR [2] was determined as 12.5 pM. At GCGR [3], the EC50 came out at 92.9 pM. In addition, the EC50 at GIPR [6] was determined as 3.1 pM. The EC50 on GCGR [5] amounted to 2.1 pM. In the series “in vivo” (male, SD, iv, 1 mg/kg), this compound gave an AUC(0-inf) of 165 µg·h/mL, an AUC(0-t) of 164 µg·h/mL, an MRT of 22.1 h and a Vd of 0.134 L/kg. Further, in the series “in vivo” (male, SD, iv, 1 mg/kg), the clearance was 0.101 mL/min/kg and the half-life is 15 h. The compound also displayed a bioavailability in “in vivo” (male, SD, sc) of 50%. For the same compound, in the series “in vivo” (male, SD, sc, 3 mg/kg), the AUC(0-inf) came out at 248 µg·h/mL, the AUC(0-t) was found to be 247 µg·h/mL, the apparent clearance (CL/F) was determined as 0.205 mL/min/kg and the Cmax turned out to be 4770 ng/mL. Besides, in “in vivo” (male, SD, sc, 3 mg/kg), the MRT amounted to 36.9 h, the time to peak (Tmax) amounted to 24 h and the half-life was 13.1 h. Moreover, in the series “in vivo” (iv, 1 mg/kg), the “AUC0-t /AUC0-inf” value is recorded as 0.997 and the Kel came to 0.0462 h⁻¹. In addition, in the series “in vivo” (sc, 3 mg/kg), the “AUC0-t /AUC0-inf” value is reported as 0.996 and the Vz/F was 0.232 L/kg.
